According to ChEMBL document CHEMBL1201862, “PubChem BioAssay data set” (2004):
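Test compounds were applied to cells in 96-well plates for 48 hours at 5 doses. GI50 = concentration required for 50% inhibition of growth.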 The source made the active and inactive calls. Rule as the data show it: active = GI50 up to about 1.1 µM and inactive = higher.

Assays:
Test in all cases: inhibition of tumour cell growth, NCI panel, 48 h
TK-10 = system: TK-10
SK-MEL-28 = system: SK-MEL-28
MOLT-4 = system: MOLT-4
HL-60 = system: HL-60
A549 = system: A549
SF-295 = system: SF-295
DU-145 = system: DU-145
Malme-3M = system: Malme-3M
HCT-116 = system: HCT-116
UACC-62 = system: UACC-62
MCF7 = system: MCF7
786-0 = system: 786-0
SK-MEL-2 = system: SK-MEL-2
IGROV-1 = system: IGROV-1
SNB-19 = system: SNB-19
Hs-578T = system: Hs-578T
M14 = system: M14
SK-MEL-5 = system: SK-MEL-5
EKVX = system: EKVX
RXF 393 = system: RXF 393
LOX IMVI = system: LOX IMVI
COLO 205 = system: COLO 205
T47D = system: T47D
HCT-15 = system: HCT-15
SNB-75 = system: SNB-75
SF-539 = system: SF-539
HT-29 = system: HT-29
NCI-H226 = system: NCI-H226
K562 = system: K562
U-251 = system: U-251
HOP-62 = system: HOP-62
UACC-257 = system: UACC-257
OVCAR-3 = system: OVCAR-3
A498 = system: A498
BT-549 = system: BT-549
SK-OV-3 = system: SK-OV-3
SR = system: SR
NCI-H23 = system: NCI-H23
OVCAR-4 = system: OVCAR-4
NCI/ADR-RES = system: NCI/ADR-RES
RPMI-8226 = system: RPMI-8226
SF-268 = system: SF-268
CCRF-CEM = system: CCRF-CEM
SN12C = system: SN12C
NCI-H460 = system: NCI-H460
HOP-92 = system: HOP-92
OVCAR-8 = system: OVCAR-8
NCI-H522 = system: NCI-H522
SW-620 = system: SW-620
MDA-MB-231 = system: MDA-MB-231
MDA-MB-435 = system: MDA-MB-435
ACHN = system: ACHN
PC-3 = system: PC-3
KM12 = system: KM12
UO-31 = system: UO-31
HCC 2998 = system: HCC 2998
MDA-N = system: MDA-N
CAKI-1 = system: CAKI-1
OVCAR-5 = system: OVCAR-5

In the case of O=c1cc(-c2ccccc2)[nH]c2ccc(N3CCOCC3)cc12, the GI50 (TK-10) is reported as 55 µM (inactive), the GI50 (SK-MEL-28) is reported as 0.0128 µM (active) and the GI50 (MOLT-4) is reported as 0.104 µM (active). The GI50 (HL-60) was 0.0151 µM (active), the GI50 (A549) was 0.0773 µM (active) and the GI50 (SF-295) was 0.0236 µM (active). For the same compound, the GI50 (DU-145) was 0.038 µM (active), the GI50 (Malme-3M) was 14 µM (inactive) and the GI50 (HCT-116) was < 0.0167 µM (active). For the same compound, the GI50 (UACC-62) was < 0.0268 µM (active), the GI50 (MCF7) was 0.0327 µM (active) and the GI50 (786-0) was 0.0363 µM (active). For the same compound, the GI50 (SK-MEL-2) was 22.5 µM (inactive), the GI50 (IGROV-1) was 0.0518 µM (active) and the GI50 (SNB-19) was 0.0434 µM (active). For the same compound, the GI50 (Hs-578T) was 0.0239 µM (active), the GI50 (M14) was 0.0173 µM (active) and the GI50 (SK-MEL-5) was < 0.0233 µM (active). For the same compound, the GI50 (EKVX) was 53 µM (inactive), the GI50 (RXF 393) was 0.04 µM (active) and the GI50 (LOX IMVI) was 0.0335 µM (active). The GI50 (COLO 205) was 0.0182 µM (active), the GI50 (T47D) was > 100 µM (inactive) and the GI50 (HCT-15) was 0.0241 µM. The GI50 (SNB-75) was 0.0143 µM (active), the GI50 (SF-539) was < 0.0149 µM (active) and the GI50 (HT-29) was 0.0211 µM (active). The GI50 (NCI-H226) was 0.0319 µM (active), the GI50 (K562) was < 0.0127 µM (active) and the GI50 (U-251) was 0.0185 µM (active). For the same compound, the GI50 (HOP-62) was 0.0241 µM (active), the GI50 (UACC-257) was > 100 µM (inactive) and the GI50 (OVCAR-3) was 0.0148 µM (active). For the same compound, the GI50 (A498) was 0.0413 µM (active), the GI50 (BT-549) was 23.8 µM (inactive) and the GI50 (SK-OV-3) was 0.0327 µM (active). For the same compound, the GI50 (SR) was < 0.017 µM (active), the GI50 (NCI-H23) was 0.0414 µM (active) and the GI50 (OVCAR-4) was 20.1 µM (inactive). For the same compound, the GI50 (NCI/ADR-RES) was 0.0435 µM (active), the GI50 (RPMI-8226) was 0.065 µM (active) and the GI50 (SF-268) was 0.0407 µM (active). The GI50 (CCRF-CEM) was 0.0144 µM (active), the GI50 (SN12C) was 0.0467 µM (active) and the GI50 (NCI-H460) was 0.0465 µM (active). The GI50 (HOP-92) was 0.0622 µM (active), the GI50 (OVCAR-8) was 0.042 µM (active) and the GI50 (NCI-H522) was 0.0173 µM (active). For the same compound, the GI50 (SW-620) was 0.0371 µM (active), the GI50 (MDA-MB-231) was 0.0618 µM (active) and the GI50 (MDA-MB-435) was < 0.01 µM (active). The GI50 (ACHN) was 0.0611 µM (active), the GI50 (PC-3) was 0.0346 µM (active) and the GI50 (KM12) was < 0.0171 µM (active). The GI50 (UO-31) was 13.2 µM (inactive), the GI50 (HCC 2998) was 0.0468 µM (active) and the GI50 (MDA-N) was < 0.01 µM (active). The GI50 (CAKI-1) was 0.0291 µM (active).
With COC(=O)[C@H](Cc1ccccc1)NC(=O)N(CCNC(=O)OC(C)(C)C)c1ccccc1 the GI50 (SK-MEL-28) was > 100 µM (inactive), the GI50 (MOLT-4) was > 100 µM (inactive) and the GI50 (HL-60) was > 100 µM (inactive). The GI50 (A549) was > 100 µM (inactive), the GI50 (SF-295) was > 100 µM (inactive) and the GI50 (DU-145) was > 100 µM (inactive). The GI50 (Malme-3M) was > 100 µM (inactive), the GI50 (HCT-116) was > 100 µM (inactive) and the GI50 (UACC-62) was > 100 µM (inactive). For the same compound, the GI50 (MCF7) was > 100 µM (inactive), the GI50 (786-0) was > 100 µM (inactive) and the GI50 (SK-MEL-2) was > 100 µM (inactive). The GI50 (IGROV-1) was > 100 µM (inactive), the GI50 (SNB-19) was > 100 µM (inactive) and the GI50 (Hs-578T) was > 100 µM (inactive). For the same compound, the GI50 (M14) was > 100 µM (inactive), the GI50 (SK-MEL-5) was > 100 µM (inactive) and the GI50 (EKVX) was > 100 µM (inactive). The GI50 (RXF 393) was 87.1 µM (inactive), the GI50 (LOX IMVI) was > 100 µM (inactive) and the GI50 (COLO 205) was > 100 µM (inactive). The GI50 (T47D) was 51.4 µM (inactive), the GI50 (HCT-15) was > 100 µM and the GI50 (SNB-75) was > 100 µM (inactive). The GI50 (HT-29) was > 100 µM (inactive), the GI50 (NCI-H226) was > 100 µM (inactive) and the GI50 (K562) was > 100 µM (inactive). The GI50 (U-251) was > 100 µM (inactive), the GI50 (OVCAR-5) was > 100 µM (inactive) and the GI50 (HOP-62) was > 100 µM (inactive). For the same compound, the GI50 (OVCAR-3) was > 100 µM (inactive), the GI50 (A498) was > 100 µM (inactive) and the GI50 (BT-549) was > 100 µM (inactive). The GI50 (SK-OV-3) was > 100 µM (inactive), the GI50 (SR) was > 100 µM (inactive) and the GI50 (NCI-H23) was > 100 µM (inactive). The GI50 (OVCAR-4) was > 100 µM (inactive), the GI50 (NCI/ADR-RES) was > 100 µM (inactive) and the GI50 (RPMI-8226) was > 100 µM (inactive). For the same compound, the GI50 (SF-268) was > 100 µM (inactive), the GI50 (CCRF-CEM) was > 100 µM (inactive) and the GI50 (SN12C) was > 100 µM (inactive). For the same compound, the GI50 (NCI-H460) was > 100 µM (inactive), the GI50 (OVCAR-8) was > 100 µM (inactive) and the GI50 (NCI-H522) was > 100 µM (inactive). For the same compound, the GI50 (SW-620) was > 100 µM (inactive), the GI50 (MDA-MB-231) was > 100 µM (inactive) and the GI50 (MDA-MB-435) was > 100 µM (inactive). For the same compound, the GI50 (ACHN) was > 100 µM (inactive), the GI50 (PC-3) was > 100 µM (inactive) and the GI50 (KM12) was > 100 µM (inactive). The GI50 (UO-31) was > 100 µM (inactive), the GI50 (HCC 2998) was > 100 µM (inactive) and the GI50 (MDA-N) was > 100 µM (inactive). For the same compound, the GI50 (CAKI-1) was > 100 µM (inactive).
